*1 amine or outer side, *2 acyl side, *3 side chain or, on linkers, in order; H or OH if unused. Where a SMILES comes first, the peptide text is derived from it. [ ]: non-standard residue; d: D form. The star is where a group is joined. X2 = O=C(O)CN(CC(=O)O)CC(=O)NC(=O)C[C@H](N[*:1])C(=O)[*:2]; X3 = O=C(O)CN(CC(=O)O)CC(C(=O)NCCS*)N(CC(=O)O)CC(=O)O; X1 = O=C(O)CN(CC(=O)O)c1cc(F)ccc1OCC(=O)*
Columns and labels:
Epiderm skin model = assay: Epiderm skin equivalent viability (MTT) assay; format: cell-based; details: 10 mM peptide in PBS, 12 hours; differences not significant
Experimental: The relative toxicity of the chelating and substrate peptides was assayed using the skin model Epiderm that is commercially available from MatTek Corp. The individual skin sample containers were preincubated in culture medium at 37° C. under 5% CO2 for two hours prior to the addition of the peptide constructs. The sample containers were transferred to 6 well plates that contained fresh media. All peptides were dissolved in PBS at a final concentration of 10 mM, and 100 μL of each peptide solution was pipetted onto the surface of the Epiderm sample container. Incubation was continued for 12 hours at 37° C. under 5% CO2. After the incubation period, the sample containers were washed three times with PBS and the sample containers were transferred to a 24 well plate that contained 300 μL of MTT assay media per well (MTT concentration was 1 mg/mL). The colorimetric assay was allowed to develop for three hours (incubation at 37° C. under 5% CO2). Sample containers were then transferred to a 24 well culture plate that contained 2 mL of isopropanol per well. […] Absorbance readings were taken at 570 nm and 650 nm for each sample. The percent viability of each sample relative to a PBS control was calculated as: 100×(OD570^sam−OD650^sam)/(OD570^con−OD650^con) (5) Routinely, each peptide sample was assayed in duplicate or triplicate. […]

MMP-9 [1] = target: T1, MMP-9 (Homo sapiens, UniProt P14780); assay: Enzymatic hydrolysis of fluoresceinated collagen by MMP-9 (fluorescein release assay); format: biochemical; details: MMP-9:ChePep-1 molar stoichiometries 1:0 to 1:1, FIG. 1
T1 construct: Active MMP-9 enzyme was purchased from Calbiochem; purchased Calbiochem
Experimental: Two enzymatic assays were performed. The first assay measured the enzymatic hydrolysis of fluoresceinated collagen by MMP-9 as a function of time. Fluoresceinated collagen (Molecular Probes, Inc.), at a concentration of 5 μM was added to reaction buffer (50 mM Tris-HCl (pH 7.6), 150 mM NaCl, 5 mM CaCl2, 0.1 mM NaN3) and was placed into a Spectrosil quartz fluorometer cuvette. MMP at a concentration of 0.1 μM was mixed with varying amounts of chelating peptide having SEQ ID No. 4 or 6 and incubated at 25° C. for 10 minutes to effect binding. The protein mixture was added to the collagen substrate and mixed quickly. Fluorescence emission intensity at 520 nm was measured as a function of time (excitation wavelength 495 nm) in a Shimadzu RF5301 fluorometer. The fluorescein release assay was used to determine the inhibitory constant (Ki) of the chelating peptide inhibitor ([I]) according to Segel (1993) via the use of Dixon plots (1/v vs. [I]), such that: slope=Km/(VmaxKi[S]) (1) where Km is the Michaelis constant, Vmax is the reaction maximum velocity, and [S] is the substrate concentration.

MMP-9 [2] = target: T1, MMP-9; assay: FRET substrate peptide cleavage assay with MMP-9; format: biochemical; details: for Regulation of MMP-9 in FRET assay (in words): ChePep:MMP-9 molar stoichiometries 0.1:1 to 0.3:1, FIGS. 2-5; for Regulation of MMP-9 compared with other ChePeps (in words): FRET assay, comparison of molar stoichiometries
Experimental: The second assay utilized the technique of fluorescence resonance energy transfer (FRET). The substrate peptide (Calbiochem #444221) comprised seven amino acids, coupled to a carboxyl terminal dinitrophenyl acceptor, and an amino terminal 2-aminobenzo-anthraniloyl (Abz) moiety donor. Cleavage of this substrate by MMP-9 results in the liberation of a fluorescent product (365 nm excitation, 450 nm emission). […] MMP at a concentration of 0.1 μM was mixed with varying amounts of chelating peptide (0, 0.01, 0.02, 0.04, and 0.1 μM) and incubated at 25° C. for 10 minutes to effect binding. The protein mixture was added to the peptide substrate and mixed quickly. Fluorescence intensity as a function of time was measured with a Dynex MFX fluorescence microtiter plate reader. Fluorescence intensity was related back to moles of peptide cleaved by producing a standard curve with an Abz containing non-FRET peptide. Inhibitory constants were derived from the curves and are listed below in Table 2.

MMP-9 [3] = target: T1, MMP-9; assay: Surface plasmon resonance (BiaCore) binding of chelating peptide to immobilized MMP-9; details: FIG. 6
Experimental: The BiaCore-X surface plasmon resonance (SPR) device was utilized to measure the interaction between the chelating peptide (CP) and MMP-9. For these experiments a carboxymethyl dextran sensor chip (BiaCore, AB; CM-5, Lofas et al., 1993) was activated with 50 mM N-hydroxysuccinimide, 0.2 M N-ethyl-N′-(dimethylaminopropyl)-carbodiimide at a flow rate of 10 μL per minute for ten minutes. MMP-9 at a concentration of 75 ng/μL was coupled to the activated surface at a flow rate of 10 μL per minute for ten minutes. The final surface was inactivated by flowing 1 M ethanolamine HCl at a rate of 10 μL per minute for five minutes over the sensor surface. CP was flowed over the sensor surface at a rate of 20 μL per minute, and at concentrations of 10, 25, and 50 nM. Binding isotherms were evaluated by simultaneously fitting the forward (ka) and reverse (kd) rate constants to the following formula: d[CP˜MMP-9]/dt=(ka[CP][MMP-9])−(kd[CP˜MMP-9]) (2) (Karlsson and Falt, 1997) where [CP], [MMP-9], and [CP˜MMP-9] are the concentrations of free chelating peptide, free MMP-9, and the complex respectively. […]

T1 sequence (P14780 107-707 limits assumed): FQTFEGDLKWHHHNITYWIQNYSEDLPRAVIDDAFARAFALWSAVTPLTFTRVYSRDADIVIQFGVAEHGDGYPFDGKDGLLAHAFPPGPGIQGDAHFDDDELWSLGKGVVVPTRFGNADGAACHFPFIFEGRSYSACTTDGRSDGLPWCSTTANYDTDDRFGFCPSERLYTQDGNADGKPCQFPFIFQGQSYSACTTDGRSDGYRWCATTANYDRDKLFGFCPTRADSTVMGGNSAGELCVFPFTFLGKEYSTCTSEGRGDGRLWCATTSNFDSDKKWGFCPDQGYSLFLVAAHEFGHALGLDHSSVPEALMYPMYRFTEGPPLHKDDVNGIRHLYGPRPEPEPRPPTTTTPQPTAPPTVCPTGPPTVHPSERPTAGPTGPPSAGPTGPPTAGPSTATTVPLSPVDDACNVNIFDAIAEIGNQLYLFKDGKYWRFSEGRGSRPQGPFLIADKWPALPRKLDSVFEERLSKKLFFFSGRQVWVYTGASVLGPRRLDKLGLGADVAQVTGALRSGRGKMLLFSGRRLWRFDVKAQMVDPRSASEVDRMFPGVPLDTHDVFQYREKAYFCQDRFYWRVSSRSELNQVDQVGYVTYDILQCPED

2-amino-4-fluorophenol N,N,O triacetic acid [AFTA]
Percent viability relative to PBS control, by zinc chelator of the construct (Epiderm skin model): 90.5%

CC(C)[C@H](NC(=O)[C@@H]1CCCN1C(=O)[C@@H](NC(=O)[C@H](C)NC(=O)[C@H](CO)NC(=O)[C@@H](N)CSSCCNC(=O)C(CN(CC(=O)O)CC(=O)O)N(CC(=O)O)CC(=O)O)C(C)C)C(=O)N[C@@H](Cc1c[nH]cn1)C(=O)O (some centres unmarked) [ChePep-1] (H-C(X3)SAVPVH-OH)
Regulation of MMP-9 hydrolysis of fluoresceinated collagen (in words) (MMP-9 [1]): prevents the enzyme from degrading fluoresceinated collagen in a dose dependent manner

CC(C)[C@H](NC(=O)[C@@H]1CCCN1C(=O)[C@@H](NC(=O)[C@H](C)NC(=O)[C@H](CO)NC(=O)[C@@H](N)CC(=O)NC(=O)CN(CC(=O)O)CC(=O)O)C(C)C)C(=O)N[C@@H](Cc1c[nH]cn1)C(N)=O [ChePep-2] (H-[X2]SAVPVH-NH2)
Regulation of MMP-9 in FRET assay (in words) (MMP-9 [2]): dose dependent manner
Regulation of MMP-9 compared with other ChePeps (in words) (MMP-9 [2]): significantly more effective in regulating MMP-9 than was ChepPep-1

CC[C@H](C)[C@H](N)C(=O)N[C@@H](Cc1ccc(O)cc1)C(=O)N[C@H](C(=O)N[C@@H](C)C(=O)N[C@@H](CSSCCNC(=O)C(CN(CC(=O)O)CC(=O)O)N(CC(=O)O)CC(=O)O)C(=O)N[C@@H](CCSC)C(=O)N[C@@H](CO)C(=O)N[C@@H](C)C(=O)N[C@H](C(N)=O)C(C)C)[C@@H](C)O (some centres unmarked) [ChePep-3] (H-IYTAC(X3)MSAV-NH2; N-terminus assumed)
Regulation of MMP-9 compared with other ChePeps (in words) (MMP-9 [2]): nearly identical ability to regulate MMP-9

CC[C@H](C)[C@H](N)C(=O)N[C@@H](Cc1ccc(O)cc1)C(=O)N[C@H](C(=O)N[C@@H](C)C(=O)N[C@@H](CC(=O)NC(=O)CN(CC(=O)O)CC(=O)O)C(=O)N[C@@H](CCSC)C(=O)N[C@@H](CO)C(=O)N[C@@H](C)C(=O)N[C@H](C(N)=O)C(C)C)[C@@H](C)O [ChePep-4] (H-IYTA[X2]MSAV-NH2; N-terminus and C-terminus assumed)
Regulation of MMP-9 compared with other ChePeps (in words) (MMP-9 [2]): nearly identical ability to regulate MMP-9

CC(C)C(NC(=O)C(CS)NC(=O)C(NC(=O)C(CS)NC(=O)COc1ccc(F)cc1N(CC(=O)O)CC(=O)O)C(C)O)C(=O)N1CCCC1C(=O)O (centres unmarked) [ChePep-6] (X1-CTCVP-OH; configuration not given here)
Regulation of MMP-9 in FRET assay (in words) (MMP-9 [2]): effective MMP-9 regulator at low molar stoichiometries
Regulation of MMP-9 compared with other ChePeps (in words) (MMP-9 [2]): most potent regulator of all the ChePeps
SPR association / affinity for immobilized MMP-9 (in words) (MMP-9 [3]; 400 second association phase, 20 μL per minute): binds quickly and with high affinity
SPR dissociation from immobilized MMP-9 (in words) (MMP-9 [3]; 800 second dissociation phase): does not dissociate

pyridine disulfide ethylenediaminetetraacetic acid [PSDE]
Percent viability relative to PBS control, by zinc chelator of the construct (Epiderm skin model): 96.5%

Source: patent publication US7041787B2, “Design and use of advanced zinc chelating peptides to regulate matrix metalloproteinases” (Kimberly-Clark Worldwide, Inc., priority 2000, dated 2006)
